Consider eight molecules from paper PMC7335359, “Design and Synthesis of Dihydroxamic Acids as HDAC6/8/10 Inhibitors” (Chemmedchem, 2020).

One test has as its target T1, HDAC3/NcoR2 complex (Homo sapiens, UniProt O15379).
T1 construct: purchased BPS Bioscience 50003
Nature of the test: HDAC-Glo I/II enzymatic assay, HDAC3. The format is biochemical. The conditions noted are these: read-out: HDAC3 pIC50 (converted). The protocol:
Inhibitors were tested at eight serial dilutions in triplicate ranging from 50 μM–86,7 pM (HDAC6) or 100 μM–8,67 nM (HDAC1,2,3,8). Drug dosing was performed from 10 mM and 0.1 mM DMSO stock solutions with a D300e Digital Dispenser (Tecan). HDACs (7 ng/mL for HDAC1, 10 ng/mL for HDAC2, 200 ng/mL for HDAC3/Ncor2 complex, 100 ng/mL for HDAC6, 200 ng/mL for HDAC8) and inhibitors were incubated together for 30 min at room temperature. After addition of the HDAC‐Glo™ I/II reagent, plates were shaken (800 rpm orbital shaker, 30 s), centrifuged (300 g, 1 min) and incubated at room temperature for 30 min. Luminescence was detected with a CLARIOstar (BMG Labtech) plate reader.

Test [1] has as its system SK‐N‐BE(2)C neuroblastoma cell line. In words: SK-N-BE(2)C cell viability assay (CellTiter-Blue). The note with it: SK-N-BE(2)C cells; for effect on cell viability: up to 100 μM. The class given is cell-based. As for the experimental part: Cell viability assay: SK‐N‐BE(2)C cells were cultured in Dulbecco's modified Eagle medium (DMEM, Lonza, Basel, Switzerland) supplemented with 10 % fetal calf serum (FCS, Sigma‐Aldrich) and 1 % non‐essential amino acids (NEAA, Lonza). SK‐N‐BE(2)C cells were seeded from a confluent flask into 96‐well plates in 100 μL full growth medium at a density of 5×10^3 cells per well the day before treatment. Cells were treated in triplicates with drug concentrations as indicated in the respective figure. Drugs were dosed from 50 mM and 200 mM stock solutions with a D300e Digital Dispenser (Tecan) and DMSO concentrations were normalized to 0.2 % for all wells. Plates were shaken (1000 rpm orbital shaker, 30 s) and incubated under standard culture conditions for 72 h. To each well 20 μL of CellTiter‐Blue® reagent (G8081, Promega) was added, plates were shaken (600 rpm orbital shaker, 20 s) and incubated at 37 °C overnight. Fluorescence was measured (extinction/emission: 570 nm/590 nm) on a FluoStar Optima (BMG Labtech) plate reader. Cell viability was normalized with untreated positive controls and cell‐free negative controls. IC50‐values were calculated as described in the BRET assay.

Test [2] concerns lysosomal staining with LysoTracker DND‐99 (HDAC10 knockdown phenotype). In words: LysoTracker assay in SK-N-BE(2)C cells. The note with it: 10 μM inhibitor, normalized to DMSO. The class given is cell-based. As for the experimental part:
LysoTracker assay: SK‐N‐BE(2)‐C cells were seeded into 6‐well dishes at a density of 1.5×10^5 cells per well. Cells were treated with inhibitor over night at concentrations indicated in the figure and stained the following day for 1 h with 50 nM LysoTracker® Red DND‐99 in medium under standard cell culture conditions. Cells were washed with ice‐cold RPMI without phenol‐red and trypsinized for 3 min at 37 °C. Detached cells were centrifuged for 3 min at 8600 g and re‐suspended in ice‐cold RPMI without phenol red. Mean LysoTracker fluorescence was quantified on a BD FACSCanto II platform using the PE filter setting. Data were normalized to mean LysoTracker fluorescence of solvent (DMSO) treated cells.

A further test has as its target T2, HDAC10 (Homo sapiens, UniProt Q969S8).
T2 sequence (Q969S8 1-669): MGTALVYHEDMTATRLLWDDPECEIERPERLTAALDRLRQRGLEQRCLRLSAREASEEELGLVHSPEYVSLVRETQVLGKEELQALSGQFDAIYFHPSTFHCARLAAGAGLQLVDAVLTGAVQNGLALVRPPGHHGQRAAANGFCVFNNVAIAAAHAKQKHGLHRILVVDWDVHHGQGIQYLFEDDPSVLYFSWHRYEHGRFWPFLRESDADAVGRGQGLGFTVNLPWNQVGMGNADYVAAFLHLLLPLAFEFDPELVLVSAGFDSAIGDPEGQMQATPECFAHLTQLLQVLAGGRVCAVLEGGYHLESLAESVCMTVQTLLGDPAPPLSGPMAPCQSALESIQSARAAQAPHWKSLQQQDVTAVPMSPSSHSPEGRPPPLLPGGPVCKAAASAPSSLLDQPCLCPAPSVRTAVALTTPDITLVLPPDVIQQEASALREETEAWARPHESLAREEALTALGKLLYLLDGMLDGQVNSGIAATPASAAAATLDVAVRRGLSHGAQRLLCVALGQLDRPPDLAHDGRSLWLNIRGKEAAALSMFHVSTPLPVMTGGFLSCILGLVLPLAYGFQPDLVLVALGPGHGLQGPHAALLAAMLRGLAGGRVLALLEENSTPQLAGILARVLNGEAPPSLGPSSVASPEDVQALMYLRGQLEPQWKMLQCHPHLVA
In words: cellular BRET HDAC10 target engagement assay (stably transfected HeLa cells). The conditions noted are these: for IC50: read-out: HDAC10 BRET pIC50 (converted). The format is cell-based. Also on record: host or cells: HeLa (stably transfected mono-clones). As for the experimental part: Production of mono‐clones stably expressing HDAC‐nanoBRET proteins: Plasmids expressing a fusion of HDAC10 with nanoluciferase were obtained from Promega (N2170). HeLa cells (0.75×10^6) were seeded in a 6 cm dish and after 24 h were transfected with a mix of 10 μg plasmid and 3 μL Fugene in 200 μL OptiMEM. In detail, cells were washed with pre‐warmed OptiMEM and subsequently overlaid with 2.3 mL of OptiMEM. After addition of 200 μL transfection mix, cells were incubated for 24 h at 37 °C. Cells were than trypsinized and 0.2×10^5 cells were seeded into both 10 cm and 15 cm dishes. Transformants were selected with 1 mg/mL G‐418 for 6 days with a media change after 3 days. Clones which formed colonies were picked by rinsing plates with 3 mL Trypsin/EDTA (Sigma T3924) followed by a 2 min incubation with 300 μL Trypsin/EDTA at 37 °C. Colonies were then loosened and aspirated with a 10 μL filter tip and transferred to 24‐well plates containing selection medium.
Culture of stable BRET cell lines: Stably transfected HeLa cells were cultivated under sterile conditions in polystyrene cell culture flasks (658170, Greiner) at 37 °C and 5 % CO2 in a humidified atmosphere. DMEM growth medium (D6049, Sigma) was supplemented with 10 % FCS (FBS‐12A, Capricorn Scientific), 1 % penicillin‐streptomycin (P4333, Sigma) and 1 mg/mL Geneticin (2039.3, Roth). At confluency, cells were passaged by removing old medium, DPBS (14190‐094, gibco) wash, trypsination (T4049, Sigma) and seeding in fresh growth medium.
BRET assay: The intracellular target engagement assay on HDAC10 was performed as described by the kit manufacturer in a 96‐well plate (3600, Corning) format with 1.9×10^4 cells per well and a tracer concentration of 0.3 μM. […] Drug dosing was performed from 10 mM and 1 mM DMSO stock solutions with a D300e Digital Dispenser (Tecan), DMSO concentrations were normalized to 0.5 % for all wells. Assay plates were incubated at 37 °C for 2 h followed by measurement of 450 nm and 650 nm luminescence (80 nm bandwidth) at room temperature with a CLARIOstar (BMG Labtech) plate reader 2 min after NanoLuc substrate addition.
On the technique in general: In BRET a luciferase serves as donor, and the signal depends on an acceptor being close.

Setting [3] is: cellular target engagement, one experiment in triplicate.

T1 sequence (O15379 whole entry): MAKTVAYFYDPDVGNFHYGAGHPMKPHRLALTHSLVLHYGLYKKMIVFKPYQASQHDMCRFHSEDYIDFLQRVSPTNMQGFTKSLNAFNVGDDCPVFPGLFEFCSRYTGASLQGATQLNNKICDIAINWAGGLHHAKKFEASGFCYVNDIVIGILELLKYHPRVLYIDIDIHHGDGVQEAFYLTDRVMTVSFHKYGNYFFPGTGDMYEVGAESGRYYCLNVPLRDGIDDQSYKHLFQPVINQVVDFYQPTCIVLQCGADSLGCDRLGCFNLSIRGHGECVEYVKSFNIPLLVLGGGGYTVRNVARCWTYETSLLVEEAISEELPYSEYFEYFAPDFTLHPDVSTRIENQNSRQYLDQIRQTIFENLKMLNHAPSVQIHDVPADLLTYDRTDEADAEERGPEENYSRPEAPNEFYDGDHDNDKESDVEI
T1 sequence (Q9Y618 395-489 partner limits assumed): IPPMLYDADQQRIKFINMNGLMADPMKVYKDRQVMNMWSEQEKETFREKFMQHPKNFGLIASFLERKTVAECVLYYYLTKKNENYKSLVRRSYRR

For the molecule `CN(C)CCn1cc(Cc2ccc(C(=O)NO)cc2)c2cc(C(=O)NO)ccc21` [Compound 3e], the IC50 at HDAC3/NcoR2 complex was 6.61 µM. Further, the “effect on cell viability” value in test [1] is given as “little effect”. Further, the “lysosomal staining with LysoTracker DND-99 (HDAC10 knockdown phenotype)” value (from here on “lysosomal staining”) in test [2] is recorded as “failed to produce an HDAC10 knockdown phenotype”.
As to `CN1CCc2c(c3ccc(C(=O)NO)cc3n2Cc2ccc(C(=O)NO)cc2)C1` [Compound 3c], the IC50 on HDAC3/NcoR2 complex was 13.5 µM.
As to `CN(C)Cc1cn(Cc2ccc(C(=O)NO)cc2)c2cc(C(=O)NO)ccc12` [Compound 3b], the IC50 on HDAC3/NcoR2 complex was 6.92 µM.
The same measure, in the same setting: the value for `O=C(NO)c1ccc(Cn2ccc3ccc(C(=O)NO)cc32)cc1` [Compound 3a] was 5.5 µM; that for `O=C(NO)c1ccc(Cn2ncc3ccc(C(=O)NO)cc32)cc1` [Compound 3f] was 1.32 µM.
In the case of `CN(C)Cc1nn(Cc2ccc(C(=O)NO)cc2)c2cc(C(=O)NO)ccc12` [Compound 3g], the IC50 was 6.61 µM on HDAC3/NcoR2 complex and 0.158 µM on HDAC10 (setting [3]). The “effect on cell viability” value in test [1] was “little effect”. Besides, in test [2], the “lysosomal staining” value is reported as “failed to produce an HDAC10 knockdown phenotype”.
As for `O=C(NO)c1ccc(Cc2c[nH]c3ccc(C(=O)NO)cc23)cc1` [Compound 3d], the IC50 is 6.46 µM at HDAC3/NcoR2 complex, 7 µM in test [1] (72 h) and 0.0151 µM at HDAC10 (setting [3]). In addition, the “lysosomal staining” value in test [2] is given as “induces lysosomal acidification similar to Tubastatin A”. Further, the “loss of potency between the FRET and BRET HDAC10 assays” value at HDAC10 (BRET weaker than FRET) is reported as around 5 fold.
For `CN(C)Cc1nn(Cc2ccc(C(=O)NO)cc2)c2ccccc12` [Compound 1g], the “lysosomal staining” value in test [2] is reported as “effective”. Besides, the “HDAC10 BRET pIC50” value on HDAC10 (setting [3]) was determined as 7.80.
